From US6472348B1, “Pyridone derivatives and herbicides” (Kumiai Chemical Industry Co., Ltd., priority 1996, dated 2002)

Tests used:
wheat (Tr) = test: Test Example 9: crop plant selectivity by upland field foliage treatment (wheat), phytotoxicity; details: dose 1.6 g ai/10a, 14th day after treatment;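 note: grade of crop injury; 5 = at least 90%; 4 = 70 to 90%; 3 = 50 to 70%; 2 = 30 to 50%; 1 = 10 to 30%; 0 = under 10%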
Procedure: (§1) (Test on Crop Plant Selectivity by Upland Field Foliage Treatment)
(§2) In a plastic pot (surface area: 600 cm^2) filled with sand, wheat (Tr), pale smartweed (Po), slender amaranth (Am), common lambsquarters (Ch) and China jute (Ab) were sown and cultured in a green house for 2 weeks. […] The plants were then cultured in a green house, and the evaluation of the herbicidal effects and phytotoxicity was conducted on the 14th day after the treatment in accordance with the standards as identified in Table 47.

barnyardgrass (Ec) [1] = test: Test Example 1: herbicidal effects by paddy field soil treatment; format: in vivo; details: 100 g of the active ingredient per 10 ares, 21st day after the application, index 0-5 of Table 47;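 note: grade of growth control; 5 = at least 90%; 4 = 70 to 90%; 3 = 50 to 70%; 2 = 30 to 50%; 1 = 10 to 30%; 0 = under 10%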
In short: (§3)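 Herbicidal effect was scored against a graded standard 21 days after treatment. Seeds were sown in puddled, leveled paddy soil flooded to 3 cm depth, and the active ingredient was applied at 100 g per 10 ares before greenhouse culture.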

monochoria (Mo) = test: as above; format: in vivo; details: 100 g of the active ingredient per 10 ares, 21st day after the application, index 0-5 of Table 47;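 note: grade of growth control; 5 = at least 90%; 4 = 70 to 90%; 3 = 50 to 70%; 2 = 30 to 50%; 1 = 10 to 30%; 0 = under 10%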
In short: as §3

bulrush (Sc) = test: as above; format: in vivo; details: 100 g of the active ingredient per 10 ares, 21st day after the application, index 0-5 of Table 47;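 note: grade of growth control; 5 = at least 90%; 4 = 70 to 90%; 3 = 50 to 70%; 2 = 30 to 50%; 1 = 10 to 30%; 0 = under 10%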
In short: as §3

corn (Ze) = test: Test Example 7: crop plant selectivity by upland field soil treatment (corn), phytotoxicity; format: in vivo; parameters: scale not given here; details: dose 6.3 g ai/10a, 21st day after application
Procedure: (§4) (Test on Crop Plant Selectivity by Upland Field Soil Treatment)
as §2, with “corn (Ze), green foxtail (Se),” for “wheat (Tr),”, “covered with soil.” for “cultured in a green house for 2 weeks.”, “21st” for “14th”, “application” for “treatment”

pale smartweed (Po) [2] = test: Test Example 9: crop plant selectivity by upland field foliage treatment (wheat), herbicidal effects; format: in vivo; parameters: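 grade of growth control; 5 = at least 90%; 4 = 70 to 90%; 3 = 50 to 70%; 2 = 30 to 50%; 1 = 10 to 30%; 0 = under 10%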; details: dose 1.6 g ai/10a, 14th day after treatment
Procedure: as §1, §2

[3] = test system: common lambsquarters (Ch); test: as above; format: in vivo; parameters: scale not given here; details: dose 1.6 g ai/10a, 14th day after treatment
Procedure: as §1, §2

China jute (Ab) [4] = test: as above; format: in vivo; parameters: scale not given here; details: dose 1.6 g ai/10a, 14th day after treatment
Procedure: as §1, §2

slender amaranth (Am) [5] = test: as above; format: in vivo; parameters: scale not given here; details: dose 1.6 g ai/10a, 14th day after treatment
Procedure: as §1, §2

pale smartweed (Po) [6] = test: Test Example 7: crop plant selectivity by upland field soil treatment (corn), herbicidal effects; format: in vivo; parameters: scale not given here; details: dose 6.3 g ai/10a, 21st day after application
Procedure: as §4
as §2, with “corn (Ze), green foxtail (Se),” for “wheat (Tr),”, “covered with soil.” for “cultured in a green house for 2 weeks.”, “21st” for “14th”, “application” for “treatment”

[7] = test system: common lambsquarters (Ch); test: as above; format: in vivo; parameters: scale not given here; details: dose 6.3 g ai/10a, 21st day after application
Procedure: as §4
as §2, with “corn (Ze), green foxtail (Se),” for “wheat (Tr),”, “covered with soil.” for “cultured in a green house for 2 weeks.”, “21st” for “14th”, “application” for “treatment”

China jute (Ab) [8] = test: as above; format: in vivo; parameters: scale not given here; details: dose 6.3 g ai/10a, 21st day after application
Procedure: as §4
as §2, with “corn (Ze), green foxtail (Se),” for “wheat (Tr),”, “covered with soil.” for “cultured in a green house for 2 weeks.”, “21st” for “14th”, “application” for “treatment”

green foxtail (Se) [9] = test: as above; format: in vivo; parameters: scale not given here; details: dose 6.3 g ai/10a, 21st day after application
Procedure: as §4
as §2, with “corn (Ze), green foxtail (Se),” for “wheat (Tr),”, “covered with soil.” for “cultured in a green house for 2 weeks.”, “21st” for “14th”, “application” for “treatment”

slender amaranth (Am) [10] = test: as above; format: in vivo; parameters: scale not given here; details: dose 6.3 g ai/10a, 21st day after application
Procedure: as §4
as §2, with “corn (Ze), green foxtail (Se),” for “wheat (Tr),”, “covered with soil.” for “cultured in a green house for 2 weeks.”, “21st” for “14th”, “application” for “treatment”

pale smartweed (Po) [11] = test: Test Example 6: crop plant selectivity by upland field soil treatment (soybean), herbicidal effects; format: in vivo; parameters: scale not given here; details: dose 6.3 g ai/10a, 21st day after application
Procedure: as §4
(§5) In a plastic pot (surface area: 600 cm^2) filled with sand, soybean (Gl), Diaitaria ciliaris (Di), green foxtail (Se), Johnsongrass (So), pale smartweed (Po), slender amaranth (Am), common lambsquarters (Ch) and China jute (Ab) were sown and covered with soil. […] The plants were then cultured in a green house, and the evaluation of the herbicidal effects and phytotoxicity was conducted on the 21st day after the application in accordance with the standards as identified in Table 47. Symbol—represents “not tested”.

[12] = test system: common lambsquarters (Ch); test: as above; format: in vivo; parameters: scale not given here; details: dose 6.3 g ai/10a, 21st day after application
Procedure: as §4, §5

China jute (Ab) [13] = test: as above; format: in vivo; parameters: scale not given here; details: dose 6.3 g ai/10a, 21st day after application
Procedure: as §4, §5

green foxtail (Se) [14] = test: as above; format: in vivo; parameters: scale not given here; details: dose 6.3 g ai/10a, 21st day after application
Procedure: as §4, §5

slender amaranth (Am) [15] = test: as above; format: in vivo; parameters: scale not given here; details: dose 6.3 g ai/10a, 21st day after application
Procedure: as §4, §5

cotton (Go) = test: Test Example 4: crop plant selectivity by upland field soil treatment (cotton), phytotoxicity; format: in vivo; parameters: scale not given here; details: dose 6.3 g ai/10 a, evaluated 21st day after application
Procedure: as §4
(§6) In a plastic pot (surface area: 600 cm^2) filled with sand, cotton (Go), Diaitaria ciliaris (Di), green foxtail (Se), pale smartweed (Po), slender amaranth (Am), common lambsquarters (Ch) and China jute (Ab) were sown and covered with soil. […] The plants were then cultured in a green house, and the evaluation of the herbicidal effects and phytotoxicity was conducted on the 21st day after the application in accordance with the standards as identified in Table 47. Symbol—represents “not tested”.

barnyardgrass (Ec) [16] = test: Test Example 3: herbicidal effects by upland field foliage treatment; format: in vivo; parameters: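 grade of growth control; 5 = at least 90%; 4 = 70 to 90%; 3 = 50 to 70%; 2 = 30 to 50%; 1 = 10 to 30%; 0 = under 10%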; details: 100 g of the active ingredient per 10 ares, evaluated on the 14th day after treatment
In short: (§7)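 Readout: visual herbicidal rating per defined standards, 14th day after treatment. Plants sown in sand (pot area 120 cm^2), soil-covered, greenhouse-cultured for 2 weeks prior to foliage application, then greenhouse-grown until scoring.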

pale smartweed (Po) [17] = test: as above; format: in vivo; parameters: scale not given here; details: 100 g of the active ingredient per 10 ares, evaluated on the 14th day after treatment
In short: as §7

[18] = test system: common lambsquarters (Ch); test: as above; format: in vivo; parameters: scale not given here; details: 100 g of the active ingredient per 10 ares, evaluated on the 14th day after treatment
In short: as §7

rice flatsedge (Ci) [19] = test: as above; format: in vivo; parameters: scale not given here; details: 100 g of the active ingredient per 10 ares, evaluated on the 14th day after treatment
In short: as §7

Diaitaria ciliaris (Di) = test: as above; format: in vivo; parameters: scale not given here; details: 100 g of the active ingredient per 10 ares, evaluated on the 14th day after treatment
In short: as §7

slender amaranth (Am) [20] = test: as above; format: in vivo; parameters: scale not given here; details: 100 g of the active ingredient per 10 ares, evaluated on the 14th day after treatment
In short: as §7

pale smartweed (Po) [21] = test: Test Example 4: crop plant selectivity by upland field soil treatment (cotton), herbicidal effects; format: in vivo; parameters: scale not given here; details: dose 6.3 g ai/10 a, evaluated 21st day after application
Procedure: as §4, §6

[22] = test system: common lambsquarters (Ch); test: as above; format: in vivo; parameters: scale not given here; details: dose 6.3 g ai/10 a, evaluated 21st day after application
Procedure: as §4, §6

China jute (Ab) [23] = test: as above; format: in vivo; parameters: scale not given here; details: dose 6.3 g ai/10 a, evaluated 21st day after application
Procedure: as §4, §6

green foxtail (Se) [24] = test: as above; format: in vivo; parameters: scale not given here; details: dose 6.3 g ai/10 a, evaluated 21st day after application
Procedure: as §4, §6

slender amaranth (Am) [25] = test: as above; format: in vivo; parameters: scale not given here; details: dose 6.3 g ai/10 a, evaluated 21st day after application
Procedure: as §4, §6

barnyardgrass (Ec) [26] = test: Test Example 2: herbicidal effects by upland field soil treatment; format: in vivo; details: 100 g of the active ingredient per 10 ares, 21st day after the application, index 0-5 of Table 47
Excerpt: (§8) (Test on Herbicidal Effects by Upland Field Soil Treatment)

pale smartweed (Po) [27] = test: as above; format: in vivo; details: 100 g of the active ingredient per 10 ares, 21st day after the application, index 0-5 of Table 47
Excerpt: as §8

Digitaria ciliaris (Di) = test: as above; format: in vivo; details: 100 g of the active ingredient per 10 ares, 21st day after the application, index 0-5 of Table 47
Excerpt: as §8

[28] = test system: common lambsquarters (Ch); test: as above; format: in vivo; details: 100 g of the active ingredient per 10 ares, 21st day after the application, index 0-5 of Table 47
Excerpt: as §8

rice flatsedge (Ci) [29] = test: as above; format: in vivo; details: 100 g of the active ingredient per 10 ares, 21st day after the application, index 0-5 of Table 47
Excerpt: as §8

slender amaranth (Am) [30] = test: as above; format: in vivo; details: 100 g of the active ingredient per 10 ares, 21st day after the application, index 0-5 of Table 47
Excerpt: as §8

soybean (Gl) = test: Test Example 6: crop plant selectivity by upland field soil treatment (soybean), phytotoxicity; format: in vivo; parameters: scale not given here; details: dose 6.3 g ai/10a, 21st day after application
Procedure: as §4, §5

C#CC(CC)Oc1cc(-c2ccc(C(F)(F)F)n(C)c2=O)c(F)cc1Cl (racemic) [1-122]
Phytotoxicity Tr (wheat (Tr)): 2
Herbicidal effects Ec (barnyardgrass (Ec) [1]): 5
Herbicidal effects Mo (monochoria (Mo)): 5
Herbicidal effects Sc (bulrush (Sc)): 5
Phytotoxicity Ze (corn (Ze)): 1
Herbicidal effects Po (pale smartweed (Po) [2]): 5
Herbicidal effects Ch [3]: 5
Herbicidal effects Ab (China jute (Ab) [4]): 5
Herbicidal effects Am (slender amaranth (Am) [5]): 5
Herbicidal effects Po (pale smartweed (Po) [6]): 5
Herbicidal effects Ch [7]: 5
Herbicidal effects Ab (China jute (Ab) [8]): 5
Herbicidal effects Se (green foxtail (Se) [9]): 5
Herbicidal effects Am (slender amaranth (Am) [10]): 5
Herbicidal effects Po (pale smartweed (Po) [11]): 5
Herbicidal effects Ch [12]: 5
Herbicidal effects Ab (China jute (Ab) [13]): 5
Herbicidal effects Se (green foxtail (Se) [14]): 5
Herbicidal effects Am (slender amaranth (Am) [15]): 5
Phytotoxicity Go (cotton (Go)): 0
Herbicidal effects Ec (barnyardgrass (Ec) [16]): 5
Herbicidal effects Po (pale smartweed (Po) [17]): 5
Herbicidal effects Ch [18]: 5
Herbicidal effects Ci (rice flatsedge (Ci) [19]): 5
Herbicidal effects Di (Diaitaria ciliaris (Di)): 5
Herbicidal effects Am (slender amaranth (Am) [20]): 5
Herbicidal effects Po (pale smartweed (Po) [21]): 5
Herbicidal effects Ch [22]: 5
Herbicidal effects Ab (China jute (Ab) [23]): 5
Herbicidal effects Se (green foxtail (Se) [24]): 5
Herbicidal effects Am (slender amaranth (Am) [25]): 5
Herbicidal effects Ec (barnyardgrass (Ec) [26]): 5
Herbicidal effects Po (pale smartweed (Po) [27]): 5
Herbicidal effects Di (Digitaria ciliaris (Di)): 5
Herbicidal effects Ch [28]: 5
Herbicidal effects Ci (rice flatsedge (Ci) [29]): 5
Herbicidal effects Am (slender amaranth (Am) [30]): 5
Phytotoxicity Gl (soybean (Gl)): 2
